Experimental data: patent US20230257761A1, “HERBICIDE RESISTANT PLANT” (INSTITUTE OF GENETICS AND DEVELOPMENTAL BIOLOGY, CHINESE …, priority 2019, published 2023)

What was measured:
Type in all cases: in vivo
[1] = tested on: rice cultivar Zhonghua 11; experiment: Spraying of stems and leaves of regenerated T0 rice plants with Haloxyfop-P
From the text: According to the growth state of the regenerated plants, the T0 generation plants regenerated on the medium were placed in water for 5 to 30 days, and then the plant stems and leaves were directly sprayed with Haloxyfop-P, and the spray concentration range is between 0.1 and 2 times of the recommended concentration of commercial preparations. Four weeks after spraying, a total of 5 surviving mutants, ie, herbicide-resistant mutants, were obtained (FIG. 3).

[2] = tested on: rice tissue culture seedlings; experiment: Spraying of rice tissue culture seedlings with HPPD herbicide; conditions: about two weeks after spraying, ⅛ of the field concentration; for leaves and growth of overexpressing positive rice seedlings: rice overexpressing HPPD protein; for leaves of wild-type rice tissue culture seedlings: wild-type rice without resistance
Description: The rice tissue culture seedlings overexpressing HPPD protein were used as the positive control, and the wild-type rice plants of the same stage and variety were used as the negative control. Each group of 8 plants was sprayed with different concentration gradients of herbicide: mesotrione or Topramezone. […] The herbicide concentration, that is, ⅛ of the field concentration of mesotrione or Topramezone, is a suitable screening concentration. The rice plants obtained in Example 2 were treated at this screening concentration to obtain herbicide-resistant plants

[3] = tested on: wheat (Triticum aestivum L.); experiment: Herbicide screening: imazapic added to wheat rooting medium
Description: The existing imazapic-resistant wheat plants were used as positive control, and wild-type wheat was used as negative control. Different concentrations of imazapic were added to the wheat rooting medium, and an appropriate screening concentration was found, that is, 1/15 of the concentration of imazapic used in the field.

SMILES | leaves and growth of overexpressing positive rice seedlings [2] | leaves of wild-type rice tissue culture seedlings [2] | also measured
C[C@@H](Oc1ccc(Oc2ncc(C(F)(F)F)cc2Cl)cc1)C(=O)O [Haloxyfop-P] | – | – | number of surviving (herbicide-resistant) mutants ([1]; base-edited T0 plants, four weeks after spraying, 0.1 to 2 times the recommended concentration of commercial preparations): 5; state of heart leaves of wild-type rice after spraying ([1]; wild-type Zhonghua No. 11 (WT), FIG. 3): dry and dead
CS(=O)(=O)c1ccc(C(=O)C2C(=O)CCCC2=O)c([N+](=O)[O-])c1 [mesotrione] | normal and grew normally | turned white and then withered slowly | –
Cc1c(C(=O)c2cnn(C)c2O)ccc(S(C)(=O)=O)c1C1=NOCC1 [Topramezone] | normal and grew normally | turned white and then withered slowly | –
Cc1cnc(C2=NC(=O)C(C)(C(C)C)N2)c(C(=O)O)c1 (centres unmarked) [imazapic] | – | – | rooting of positive control wheat ([3]; existing imazapic-resistant (overexpression-positive) wheat, rooting medium with 1/15 of the field concentration of imazapic): grow roots normally; rooting of wild-type wheat ([3]; wild-type wheat (negative control), rooting medium with 1/15 of the concentration of imazapic used in the field): significantly inhibited
